Assay results as given in the Deep4Chem optical property database.

Experiment: solvent given as SMILES

`c1ccc(-c2nc(-c3ccccc3)nc(-c3cc(-n4c5ccccc5c5ncccc54)c(-n4c5ccccc5c5ncccc54)c(-n4c5ccccc5c5ncccc54)c3)n2)cc1` gave an emission maximum (in Cc1ccccc1) of 435.76 nm.
With `COc1ccc(/C=N/c2cc(C(C)C)c(O)cc2C)cc1` the emission maximum (in C1CCCCC1) was 404 nm, the emission maximum (in C1CCOC1) was 408 nm and the emission maximum (in C1COCCO1) was 407 nm. For the same compound, the emission maximum (in CC#N) was 411 nm, the emission maximum (in CC(C)(C)O) was 411 nm and the emission maximum (in CC(C)O) was 413 nm. For the same compound, the emission maximum (in CCCCCC) was 401 nm, the emission maximum (in CCCCO) was 414 nm and the emission maximum (in CCO) was 414 nm. For the same compound, the emission maximum (in CCOC(C)=O) was 407 nm, the emission maximum (in CN(C)C=O) was 413 nm and the emission maximum (in CO) was 417 nm. For the same compound, the emission maximum (in CS(C)=O) was 417 nm, the emission maximum (in ClC(Cl)Cl) was 413 nm and the emission maximum (in ClCCl) was 413 nm. It also gave an emission maximum (in O) of 440 nm and an emission maximum (in OCCO) of 426 nm.
Compound `CN1C(=CC2=C([O-])C(=Cc3oc4ccccc4[n+]3C)C2=O)C(C)(C)c2ccccc21` has an emission maximum (in ClC(Cl)Cl) of 619 nm.
Compound `C[P+]1(c2ccccc2)c2ccccc2-c2sc3ccccc3c21` (configuration not stated) has an emission maximum (in CC#N) of 442 nm, an emission maximum (in CCO) of 442 nm and an emission maximum (in ClCCl) of 445 nm.
Compound `C[Si](C)(C)c1ccc(-c2ccc(-c3ccc(-c4ccc(-c5ccc([Si](C)(C)C)s5)s4)c4nsnc34)s2)s1` has an emission maximum (in C1CCOC1) of 656 nm.
Compound `CCOC(=O)/C=C/C1=C(c2ccc(C)cc2)C2=Nc3c(-c4ccc(C)cc4)c(Br)c(-c4ccc(C)cc4)n3[B-](F)(F)[N+]2=C1c1ccc(C)cc1` has an emission maximum (in ClC(Cl)Cl) of 703 nm.
`C(=C\c1nc2ccccc2o1)/c1ccccc1` gave an emission maximum (in C1CCCCC1) of 380 nm and an emission maximum (in CO) of 380 nm.
With `CCCCCCOc1ccc2c(c1)-c1cc3c(cc1[Si]2(C)C)-c1ccccc1[Si]3(C)C` the emission maximum (in ClCCl) was 387 nm.
Work on `CCCCOc1c(OC)cc2cc(OC)c(OCCCC)c3c4c(OCCCC)c(OC)cc5cc(OC)c(OCCCC)c(c1c23)c54` yielded an emission maximum (in ClCCl) of 474 nm.
Compound `CCOC(=O)c1c(C=Cc2ccccc2)oc(NC2CCCCC2)c1C(=O)OCC` has an emission maximum (in CC#N) of 460 nm.
`N#Cc1c(-c2ccc(N(c3ccccc3)c3ccccc3)cc2)c(C#N)c(-c2ccc(N(c3ccccc3)c3ccccc3)cc2)c(C#N)c1-c1ccc(N(c2ccccc2)c2ccccc2)cc1` showed an emission maximum (in O=P(c1ccccc1)(c1ccccc1)c1ccccc1Oc1ccccc1P(=O)(c1ccccc1)c1ccccc1) of 533 nm.
`Cc1cc2nc3[nH]c(=O)n(C)c(=O)c3nc2cc1C` showed an emission maximum (in CC#N) of 436 nm.
In the case of `COc1ccc2c(c1)CCc1c-2nc(N)c(C#N)c1-c1ccc(Br)cc1`, the emission maximum (in C1CCOC1) is reported as 403 nm, the emission maximum (in C1COCCO1) is reported as 412 nm and the emission maximum (in CC#N) is reported as 408 nm. For the same compound, the emission maximum (in CCCCCC) was 392 nm, the emission maximum (in CCO) was 419 nm and the emission maximum (in CN(C)C=O) was 423 nm. It also gave an emission maximum (in CO) of 418 nm, an emission maximum (in CS(C)=O) of 427 nm and an emission maximum (in ClC(Cl)Cl) of 415 nm. The emission maximum (in ClCCl) was 411 nm.
With `CC(C)(C)c1cc(C#Cc2ccc3c(C#Cc4cc(C(C)(C)C)cc(C(C)(C)C)c4)cc4c5cc(C#Cc6cc(C(C)(C)C)cc(C(C)(C)C)c6)ccc5c(C#Cc5cc(C(C)(C)C)cc(C(C)(C)C)c5)cc4c3c2)cc(C(C)(C)C)c1` the emission maximum (in ClCCl) was 439 nm.
For `Cc1cc(C2=C(c3cc(C)sc3C)S(=O)(=O)c3ccccc32)c(C)s1`, the emission maximum (in C1CCOC1) was 465 nm.
For `CC1=[N+]2C(=C(NCc3ccccc3)c3ccc(C)n3[B-]2(F)F)C=C1c1cc2n(c1)[B-](F)(F)[N+]1=CC=CC1=C2c1c(C)cc(C)cc1C`, the emission maximum (in C1CCCCC1) was 636 nm and the emission maximum (in CCOC(C)=O) was 700 nm.
In the case of `O=c1c2cc(Cl)ccc2nc2n1[B-](F)(F)[n+]1ccccc1-2`, the emission maximum (in CC#N) is reported as 439 nm and the emission maximum (in ClCCl) is reported as 444 nm.
`N#Cc1ccc(-c2cn3cc(-c4ccccc4)c[n+]3[n-]2)cc1` gave an emission maximum (in ClCCl) of 506 nm.
`COc1ccc(C(=O)/C=C/c2ccc(N(C)C)cc2)cc1OC` gave an emission maximum (in C1CCOC1) of 500 nm, an emission maximum (in CC#N) of 525 nm and an emission maximum (in CC(=O)O) of 513 nm. For the same compound, the emission maximum (in CC(C)=O) was 511 nm, the emission maximum (in CCO) was 533 nm and the emission maximum (in CN(C)C=O) was 523 nm. The emission maximum (in CO) was 535 nm, the emission maximum (in Cc1ccccc1) was 468 nm and the emission maximum (in ClC(Cl)Cl) was 507 nm. It also gave an emission maximum (in c1ccccc1) of 470 nm.
In the case of `F[B-]1(F)n2c(c3cc4ccccc4cc3c2-c2ccccc2)C=C2c3cc4ccccc4cc3C(c3ccccc3)=[N+]21`, the emission maximum (in C1CCOC1) is reported as 782 nm, the emission maximum (in CN(C)C=O) is reported as 788 nm and the emission maximum (in ClCCl) is reported as 785 nm. The emission maximum (in c1ccccc1) was 785 nm.
`CC(C)(C)c1ccc(-n2c(-c3ccc(-c4ccc(N(c5ccccc5)c5ccccc5)cc4)s3)nc3c4ccccc4c4ccccc4c32)cc1` gave an emission maximum (in ClCCl) of 419 nm.
Compound `CC1=[N+]2C(=C(NC(C)c3ccccc3)c3ccc(C)n3[B-]2(F)F)C=C1c1cc2n(c1)[B-](F)(F)[N+]1=CC=CC1=C2c1c(C)cc(C)cc1C` (configuration not stated) has an emission maximum (in C1CCCCC1) of 640 nm and an emission maximum (in CCOC(C)=O) of 700 nm.
In the case of `COc1cc(N(c2ccc(C=C(C#N)C#N)c(OC)c2)c2ccc(C=C(C#N)C#N)c(OC)c2)ccc1C=C(C#N)C#N`, the emission maximum (in C1COCCO1) is reported as 521 nm, the emission maximum (in CC#N) is reported as 566 nm and the emission maximum (in CC(C)=O) is reported as 557 nm. It also gave an emission maximum (in CCOC(C)=O) of 532 nm, an emission maximum (in CN(C)C=O) of 575 nm and an emission maximum (in CO) of 551 nm. For the same compound, the emission maximum (in Cc1ccccc1) was 500 nm, the emission maximum (in ClC(Cl)Cl) was 514 nm and the emission maximum (in ClCCl) was 531 nm.
Compound `Cc1ccc2c(c1)c1cc(C)ccc1n2-c1c(C#N)c(-n2c3ccc(C)cc3c3cc(C)ccc32)c(-n2c3ccc(C)cc3c3cc(C)ccc32)c(C#N)c1-n1c2ccc(C)cc2c2cc(C)ccc21` has an emission maximum (in Cc1ccccc1) of 561 nm.
For `Cc1cc(C)c(C2=C3C=CC=[N+]3[B-]3(F)Oc4cc(O)cc5c6ccc(C)cc6c6cc2n3c6c45)c(C)c1` (configuration not stated), the emission maximum (in ClC(Cl)Cl) was 649 nm.
Compound `COc1ccc(/C=C/C2=CC(/C=C/c3ccc(OC)c4ccccc34)=[O+][B-](F)(F)O2)c2ccccc12` has an emission maximum (in CC#N) of 651 nm, an emission maximum (in CC(C)=O) of 622 nm and an emission maximum (in CCOC(C)=O) of 590 nm. The emission maximum (in CCOCC) was 587 nm, the emission maximum (in ClC(Cl)(Cl)Cl) was 561 nm and the emission maximum (in ClCCl) was 616 nm.
For `c1ccc(-c2nnc(-c3ccc(-n4c5ccccc5c5ccccc54)cc3)o2)cc1`, the emission maximum (in CCO) was 440 nm and the emission maximum (in Cc1ccccc1) was 387 nm.
Compound `Cc1ccc(C(=O)c2c(C)c3ccc4cccc5c6cccc7ccc2c(c76)c3c45)cc1` has an emission maximum (in ClCCl) of 450 nm.
Work on `O=S1(=O)C(c2cccs2)=C(c2cccs2)c2ccccc21` yielded an emission maximum (in C1CCOC1) of 432 nm.
In the case of `c1ccc2cc(-n3cnc4ccccc43)ccc2c1`, the emission maximum (in C1CCCCC1) is reported as 374 nm, the emission maximum (in C1CCOC1) is reported as 374 nm and the emission maximum (in CC#N) is reported as 376 nm. The emission maximum (in CCO) was 376 nm, the emission maximum (in CCOC(C)=O) was 375 nm and the emission maximum (in CCOCC) was 376 nm. The emission maximum (in CO) was 377 nm, the emission maximum (in Cc1ccccc1) was 374 nm and the emission maximum (in ClC(Cl)Cl) was 375 nm.
`CCCCC1(CCCC)c2cc(-c3ccc(C=C4C(=O)c5ccccc5C4=O)cc3)ccc2-c2ccc(-c3ccc(C=C4C(=O)c5ccccc5C4=O)cc3)cc21` showed an emission maximum (in C1CCOC1) of 532 nm, an emission maximum (in CC(C)=O) of 564 nm and an emission maximum (in CCCCCC) of 465 nm. For the same compound, the emission maximum (in CS(C)=O) was 596 nm, the emission maximum (in Cc1ccccc1) was 492 nm and the emission maximum (in ClC(Cl)Cl) was 527 nm.
Compound `CCCC1(CCC)c2cc(-c3cccc(C)c3)ccc2-c2ccc(-c3cccc(C)c3)cc21` has an emission maximum (in C1CCCCC1) of 363 nm.
Work on `CCn1c2cc(-c3ccc(-c4cccs4)s3)ccc2c2ccc(-c3ccc(-c4cccs4)s3)cc21` yielded an emission maximum (in ClCCl) of 447 nm.
In the case of `CCCC1=Cc2nc1ccc1[nH]c(cc1CCC)c1nc(c(NC(=O)CCCC(=O)OC)cc3[nH]c2cc3CCC)C(CCC)=C1`, the emission maximum (in Cc1ccccc1) is reported as 680 nm.
Compound `CCCN1c2ccccc2Sc2cc(/C=C\c3cc(=O)oc4cc(NC(=O)OCC)ccc34)ccc21` has an emission maximum (in ClC(Cl)Cl) of 635 nm.
`C1=C(c2ccccc2)[Si](c2ccccc2)(c2ccccc2)c2ccccc21` gave an emission maximum (in ClCCl) of 400 nm.
In the case of `c1ccc2cc(-c3cc(-c4nccs4)nc(-c4nccs4)c3)ccc2c1`, the emission maximum (in CC#N) is reported as 385 nm, the emission maximum (in CCCCCC) is reported as 361 nm and the emission maximum (in CO) is reported as 392 nm. It also gave an emission maximum (in ClC(Cl)Cl) of 372 nm.
`C[n+]1ccc(-c2cc[n+](C)cc2)cc1` showed an emission maximum (in CC#N) of 353 nm.
For `CCCCC1(c2ccccc2)Nc2c(-c3ccc(N(C)C)cc3)ccc(-c3ccc(N(C)C)cc3)c2N=C1c1ccccc1` (configuration not stated), the emission maximum (in C1CCOC1) was 568 nm, the emission maximum (in CC#N) was 588 nm and the emission maximum (in CCCCCC) was 530 nm. The emission maximum (in CN(C)C=O) was 596 nm, the emission maximum (in Cc1ccccc1) was 547 nm and the emission maximum (in ClC(Cl)Cl) was 561 nm.
With `O=C(O)CCCCCn1c2ccc(Br)cc2c(=O)c2cc(S(=O)(=O)O)ccc21` the emission maximum (in O) was 435 nm.
Compound `S=c1[nH]nc(-c2ccc(/C=C/c3ccc(-c4n[nH]c(=S)o4)cc3)cc2)o1` has an emission maximum (in CN(C)C=O) of 401 nm.
`CC(C)(C)c1cc(-c2ccc(-c3cc(C(C)(C)C)cc(C(C)(C)C)c3)cc2)cc(C(C)(C)C)c1` showed an emission maximum (in C1COCCO1) of 349 nm.
`N#CC(C#N)=Cc1ccc(-c2cccc(-c3nc4ccccc4s3)c2O)o1` showed an emission maximum (in CCO) of 631 nm, an emission maximum (in ClCCl) of 605 nm and an emission maximum (in O) of 635 nm.
Compound `CCN(CC)c1ccc2c(c1)oc(=O)c1cnc3c(cnn3-c3ccccc3)c12` has an emission maximum (in ClCCl) of 441 nm.
`C(#Cc1cccc2cc(-c3ccccc3)c3cc(-c4cc[b-]5c(c4)c(-c4ccccc4)cc4cccc(C#Cc6ccccc6)[n+]54)cc[b-]3[n+]12)c1ccccc1` gave an emission maximum (in C1CCCCC1) of 630 nm.
With `CN(C)c1ccc(C2=[N+]3C(=Nc4c(-c5ccccc5)cc(-c5ccc(N(C)C)cc5)n4[B-]3(F)F)C(c3ccccc3)=C2)cc1` the emission maximum (in ClC(Cl)Cl) was 823 nm.
Work on `CC1=CC(C)=[N+]2C1=C(c1ccc(-c3ccc(OS(=O)(=O)c4ccc([N+](=O)[O-])cc4[N+](=O)[O-])cc3)s1)c1c(C)cc(C)n1[B-]2(F)F` yielded an emission maximum (in CO) of 523 nm, an emission maximum (in Cc1ccccc1) of 530 nm and an emission maximum (in ClCCl) of 528 nm.
In the case of `CCN(CC)c1ccc2cc(-c3nc4c5ccccc5c5ccccc5c4n3-c3ccc(C(C)(C)C)cc3)c(=O)oc2c1`, the emission maximum (in ClCCl) is reported as 492 nm.
In the case of `C(#Cc1cc(C#Cc2ccccc2)c(C#Cc2ccccc2)c(C#Cc2ccccc2)c1C#Cc1ccccc1)c1ccccc1`, the emission maximum (in ClCCl) is reported as 424 nm.
In the case of `CCCCCCCCCCCCN1C(=O)c2c(c3ccc4cc(-c5ccccc5)c(OC)cc4c3c3c2ccc2cc(-c4ccccc4)c(OC)cc23)C1=O`, the emission maximum (in ClCCl) is reported as 526 nm.
